Laboratory results from US20220175768A1, “FGFR TYROSINE KINASE INHIBITORS FOR THE TREATMENT OF UROTHELIAL CARCINOMA” (Janssen Pharmaceutica NV, priority 2019, published 2022).

[1] = 6 mg continuous, regimen 2 (n = 78)
[2] = 8 mg continuous, Regimen 3 (n = 99)
[3] = 8 mg continuous, selected regimen 3 (n = 99)

Method: Study treatment was administered on 28-day cycles. Prior to interim analysis 1, there were 2 treatment regimens. Patients were randomized 1:1 to 28-day cycles to the following 2 regimens until a regimen was selected for further study: Regimen 1 (10 mg once daily intermittent (7 days on/7 days); Regimen 2 (6 mg once daily continuous). Randomization was stratified according to performance status (0 to 1 vs. 2), hemoglobin value (<10 vs. ≥10 g per dl), FGFR alteration type (mutation vs. fusion), prior treatment status (chemotherapy-resistant vs. chemotherapy naïve), and disease distribution (presence or absence of visceral [liver, lung, bone] metastases). Starting dose selection was based on phase 1 efficacy and tolerability.
Thus, after interim analysis, this became a single-arm study. […] Treatment continued until disease progression or unacceptable adverse event(s) per investigator.
All objective responses required confirmation by an additional investigator assessment within 4 to 6 weeks of first assessment. Disease evaluations for regimen 3 were also performed by an independent radiographic review committee. […] Safety was evaluated based on clinical laboratory tests, physical exams, electrocardiograms, and ophthalmology examinations. Adverse events and abnormalities were assessed by investigator and graded per NCI CTCAE v.4.0
Prophylactic measures were taken to minimize risk of common adverse events related to FGFR inhibition. To reduce risk of hyperphosphatemia, a low-phosphate diet was recommended for all patients (600 to 800 mg of dietary phosphate intake per day). To reduce the risk of skin effects, the application of alcohol-free emollient moisturizing cream and avoidance of unnecessary exposure to sunlight, soap, perfumed products, and hot baths was recommended. Patients were asked to keep their fingers and toes clean and nails trimmed to reduce risk of nail effects.
Additional ophthalmology examinations were performed if clinically indicated.

## COc1cc(OC)cc(N(CCNC(C)C)c2ccc3ncc(-c4cnn(C)c4)nc3c2)c1 [erdafitinib, N-(3,5-dimethoxy-phenyl)-N′-(1-methylethyl)-N-[3-(1-methyl-1H-pyrazol-4-yl)quinoxalin-6-yl]ethane-1,2-diamine]
[1]
  Treatment-related adverse event: Asthenia, Any grade: 11 (14) no. (%)
  Treatment-related adverse event: Asthenia, Grade 1: 3 (4) no. (%)
  Treatment-related adverse event: Asthenia, Grade 2: 4 (5) no. (%)
  Treatment-related adverse event: Asthenia, Grade ≥3: 4 (5) no. (%)
  Treatment-related adverse event: Conjunctivitis, Any grade: 2 (3) no. (%)
  Treatment-related adverse event: Conjunctivitis, Grade 1: 2 (3) no. (%)
  Treatment-related adverse event: Conjunctivitis, Grade 2: 0 no. (%)
  Treatment-related adverse event: Conjunctivitis, Grade ≥3: 0 no. (%)
  Treatment-related adverse event: Decreased appetite, Any grade: 18 (23) no. (%)
  Treatment-related adverse event: Decreased appetite, Grade 1: 7 (9) no. (%)
  Treatment-related adverse event: Decreased appetite, Grade 2: 9 (12) no. (%)
  Treatment-related adverse event: Decreased appetite, Grade ≥3: 2 (3) no. (%)
  Treatment-related adverse event: Diarrhea, Any grade: 29 (37) no. (%)
  Treatment-related adverse event: Diarrhea, Grade 1: 16 (21) no. (%)
  Treatment-related adverse event: Diarrhea, Grade 2: 13 (17) no. (%)
  Treatment-related adverse event: Diarrhea, Grade ≥3: 0 no. (%)
  Treatment-related adverse event: Dry mouth, Any grade: 31 (40) no. (%)
  Treatment-related adverse event: Dry mouth, Grade 1: 23 (30) no. (%)
  Treatment-related adverse event: Dry mouth, Grade 2: 6 (8) no. (%)
  Treatment-related adverse event: Dry mouth, Grade ≥3: 2 (3) no. (%)
  Treatment-related adverse event: Dry skin, Any grade: 16 (21) no. (%)
  Treatment-related adverse event: Dry skin, Grade 1: 8 (10) no. (%)
  Treatment-related adverse event: Dry skin, Grade 2: 8 (10) no. (%)
  Treatment-related adverse event: Dry skin, Grade ≥3: 0 no. (%)
  Treatment-related adverse event: Dysgeusia, Any grade: 10 (13) no. (%)
  Treatment-related adverse event: Dysgeusia, Grade 1: 6 (8) no. (%)
  Treatment-related adverse event: Dysgeusia, Grade 2: 4 (5) no. (%)
  Treatment-related adverse event: Dysgeusia, Grade ≥3: 0 no. (%)
  Treatment-related adverse event: Fatigue, Any grade: 12 (15) no. (%)
  Treatment-related adverse event: Fatigue, Grade 1: 5 (6) no. (%)
  Treatment-related adverse event: Fatigue, Grade 2: 6 (8) no. (%)
  Treatment-related adverse event: Fatigue, Grade ≥3: 1 (1) no. (%)
  Treatment-related adverse event: Hand-foot syndrome, Any grade: 12 (15) no. (%)
  Treatment-related adverse event: Hand-foot syndrome, Grade 1: 4 (5) no. (%)
  Treatment-related adverse event: Hand-foot syndrome, Grade 2: 8 (10) no. (%)
  Treatment-related adverse event: Hand-foot syndrome, Grade ≥3: 0 no. (%)
  Treatment-related adverse event: Hyperphosphatemia, Any grade: 49 (63) no. (%)
  Treatment-related adverse event: Hyperphosphatemia, Grade 1: 41 (53) no. (%)
  Treatment-related adverse event: Hyperphosphatemia, Grade 2: 8 (10) no. (%)
  Treatment-related adverse event: Hyperphosphatemia, Grade ≥3: 0 no. (%)
  Treatment-related adverse event: Lacrimation increased, Any grade: 12 (15) no. (%)
  Treatment-related adverse event: Lacrimation increased, Grade 1: 9 (12) no. (%)
  Treatment-related adverse event: Lacrimation increased, Grade 2: 3 (4) no. (%)
  Treatment-related adverse event: Lacrimation increased, Grade ≥3: 0 no. (%)
  Treatment-related adverse event: Nausea, Any grade: 6 (8) no. (%)
  Treatment-related adverse event: Nausea, Grade 1: 4 (5) no. (%)
  Treatment-related adverse event: Nausea, Grade 2: 2 (3) no. (%)
  Treatment-related adverse event: Nausea, Grade ≥3: 0 no. (%)
  Treatment-related adverse event: Onycholysis, Any grade: 13 (17) no. (%)
  Treatment-related adverse event: Onycholysis, Grade 1: 2 (3) no. (%)
  Treatment-related adverse event: Onycholysis, Grade 2: 6 (8) no. (%)
  Treatment-related adverse event: Onycholysis, Grade ≥3: 5 (6) no. (%)
  Treatment-related adverse event: Onychomadesis, Any grade: 8 (10) no. (%)
  Treatment-related adverse event: Onychomadesis, Grade 1: 2 (3) no. (%)
  Treatment-related adverse event: Onychomadesis, Grade 2: 6 (8) no. (%)
  Treatment-related adverse event: Onychomadesis, Grade ≥3: 0 no. (%)
  Treatment-related adverse event: Paronychia, Any grade: 11 (14) no. (%)
  Treatment-related adverse event: Paronychia, Grade 1: 1 (1) no. (%)
  Treatment-related adverse event: Paronychia, Grade 2: 10 (13) no. (%)
  Treatment-related adverse event: Paronychia, Grade ≥3: 0 no. (%)
  Treatment-related adverse event: Retinal detachment, Any grade: 8 (10) no. (%)
  Treatment-related adverse event: Retinal detachment, Grade 1: 5 (6) no. (%)
  Treatment-related adverse event: Retinal detachment, Grade 2: 3 (4) no. (%)
  Treatment-related adverse event: Retinal detachment, Grade ≥3: 0 no. (%)
  Treatment-related adverse event: Stomatitis, Any grade: 33 (42) no. (%)
  Treatment-related adverse event: Stomatitis, Grade 1: 13 (17) no. (%)
  Treatment-related adverse event: Stomatitis, Grade 2: 13 (17) no. (%)
  Treatment-related adverse event: Stomatitis, Grade ≥3: 7 (9) no. (%)
  Treatment-related adverse event: Vision blurred, Any grade: 5 (6) no. (%)
  Treatment-related adverse event: Vision blurred, Grade 1: 3 (4) no. (%)
  Treatment-related adverse event: Vision blurred, Grade 2: 1 (1) no. (%)
  Treatment-related adverse event: Vision blurred, Grade ≥3: 1 (1) no. (%)
8 mg continuous (n = 99)
  Treatment-related adverse event: Alopecia, Grade 3: 0 no.
  Treatment-related adverse event: Decreased appetite, Grade 3: 0 no.
  Treatment-related adverse event: Dry mouth, Grade 3: 0 no.
  Treatment-related adverse event: Dry skin, Grade 3: 0 no.
  Treatment-related adverse event: Lacrimation increased, Grade 3: 0 no.
  Treatment-related adverse event: Vision blurred, Grade 3: 0 no.
  Treatment-related adverse event: Weight decreased, Grade 3: 0 no.
[2]
  Treatment-related adverse event of special interest or clinical importance: Arrhythmia-related events, Any grade: 0 no.
  Treatment-related adverse event of special interest or clinical importance: Arrhythmia-related events, Grade ≥3: 0 no.
[3]
  Patients with Abdominal pain, Any grade: 8 (8) no. (%)
  Patients with Abdominal pain, Grade 1: 5 (5) no. (%)
  Patients with Abdominal pain, Grade 2: 2 (2) no. (%)
  Patients with Abdominal pain, Grade ≥3: 1 (1) no. (%)
  Patients with Alanine aminotransferase increased, Any grade: 17 (17) no. (%)
  Patients with Alanine aminotransferase increased, Grade 1: 13 (13) no. (%)
  Patients with Alanine aminotransferase increased, Grade 2: 2 (2) no. (%)
  Patients with Alanine aminotransferase increased, Grade ≥3: 2 (2) no. (%)
  Patients with Alopecia, Any grade: 29 (29) no. (%)
  Patients with Alopecia, Grade 1: 23 (23) no. (%)
  Patients with Alopecia, Grade 2: 6 (6) no. (%)
  Patients with Alopecia, Grade ≥3: 0 no. (%)
  Patients with Anemia, Any grade: 20 (20) no. (%)
  Patients with Anemia, Grade 1: 9 (9) no. (%)
  Patients with Anemia, Grade 2: 7 (7) no. (%)
  Patients with Anemia, Grade ≥3: 4 (4) no. (%)
  Patients with Arthralgia, Any grade: 8 (8) no. (%)
  Patients with Arthralgia, Grade 1: 5 (5) no. (%)
  Patients with Arthralgia, Grade 2: 3 (3) no. (%)
  Patients with Arthralgia, Grade ≥3: 0 no. (%)
  Patients with Aspartate aminotransferase increased, Any grade: 10 (10) no. (%)
  Patients with Aspartate aminotransferase increased, Grade 1: 8 (8) no. (%)
  Patients with Aspartate aminotransferase increased, Grade 2: 2 (2) no. (%)
  Patients with Aspartate aminotransferase increased, Grade ≥3: 0 no. (%)
  Patients with Asthenia, Any grade: 20 (20) no. (%)
  Patients with Asthenia, Grade 1: 2 (2) no. (%)
  Patients with Asthenia, Grade 2: 11 (11) no. (%)
  Patients with Asthenia, Grade ≥3: 7 (7) no. (%)
  Patients with Back pain, Any grade: 5 (5) no. (%)
  Patients with Back pain, Grade 1: 4 (4) no. (%)
  Patients with Back pain, Grade 2: 1 (1) no. (%)
  Patients with Back pain, Grade ≥3: 0 no. (%)
  Patients with Blood creatinine increased, Any grade: 10 (10) no. (%)
  Patients with Blood creatinine increased, Grade 1: 5 (5) no. (%)
  Patients with Blood creatinine increased, Grade 2: 5 (5) no. (%)
  Patients with Blood creatinine increased, Grade ≥3: 0 no. (%)
  Patients with Conjunctivitis, Any grade: 13 (13) no. (%)
  Patients with Conjunctivitis, Grade 1: 6 (6) no. (%)
  Patients with Conjunctivitis, Grade 2: 7 (7) no. (%)
  Patients with Conjunctivitis, Grade ≥3: 0 no. (%)
  Patients with Constipation, Any grade: 28 (28) no. (%)
  Patients with Constipation, Grade 1: 19 (19) no. (%)
  Patients with Constipation, Grade 2: 8 (8) no. (%)
  Patients with Constipation, Grade ≥3: 1 (1) no. (%)
  Patients with Decreased appetite, Any grade: 38 (38) no. (%)
  Patients with Decreased appetite, Grade 1: 18 (18) no. (%)
  Patients with Decreased appetite, Grade 2: 20 (20) no. (%)
  Patients with Decreased appetite, Grade ≥3: 0 no. (%)
  Patients with Diarrhea, Any grade: 50 (51) no. (%)
  Patients with Diarrhea, Grade 1: 31 (31) no. (%)
  Patients with Diarrhea, Grade 2: 15 (15) no. (%)
  Patients with Diarrhea, Grade ≥3: 4 (4) no. (%)
  Patients with Dry eye, Any grade: 19 (19) no. (%)
  Patients with Dry eye, Grade 1: 14 (14) no. (%)
  Patients with Dry eye, Grade 2: 4 (4) no. (%)
  Patients with Dry eye, Grade ≥3: 1 (1) no. (%)
  Patients with Dry mouth, Any grade: 45 (46) no. (%)
  Patients with Dry mouth, Grade 1: 34 (34) no. (%)
  Patients with Dry mouth, Grade 2: 11 (11) no. (%)
  Patients with Dry mouth, Grade ≥3: 0 no. (%)
  Patients with Dry skin, Any grade: 32 (32) no. (%)
  Patients with Dry skin, Grade 1: 24 (24) no. (%)
  Patients with Dry skin, Grade 2: 8 (8) no. (%)
  Patients with Dry skin, Grade ≥3: 0 no. (%)
  Patients with Dysgeusia, Any grade: 37 (37) no. (%)
  Patients with Dysgeusia, Grade 1: 23 (23) no. (%)
  Patients with Dysgeusia, Grade 2: 13 (13) no. (%)
  Patients with Dysgeusia, Grade ≥3: 1 (1) no. (%)
  Patients with Dyspepsia, Any grade: 11 (11) no. (%)
  Patients with Dyspepsia, Grade 1: 10 (10) no. (%)
  Patients with Dyspepsia, Grade 2: 1 (1) no. (%)
  Patients with Dyspepsia, Grade ≥3: 0 no. (%)
  Patients with Dyspnea, Any grade: 8 (8) no. (%)
  Patients with Dyspnea, Grade 1: 4 (4) no. (%)
  Patients with Dyspnea, Grade 2: 2 (2) no. (%)
  Patients with Dyspnea, Grade ≥3: 2 (2) no. (%)
  Patients with Fatigue, Any grade: 32 (32) no. (%)
  Patients with Fatigue, Grade 1: 12 (12) no. (%)
  Patients with Fatigue, Grade 2: 18 (18) no. (%)
  Patients with Fatigue, Grade ≥3: 2 (2) no. (%)
  Patients with Hand-foot syndrome, Any grade: 23 (23) no. (%)
  Patients with Hand-foot syndrome, Grade 1: 6 (6) no. (%)
  Patients with Hand-foot syndrome, Grade 2: 12 (12) no. (%)
  Patients with Hand-foot syndrome, Grade ≥3: 5 (5) no. (%)
  Patients with Hematuria, Any grade: 10 (10) no. (%)
  Patients with Hematuria, Grade 1: 7 (7) no. (%)
  Patients with Hematuria, Grade 2: 1 (1) no. (%)
  Patients with Hematuria, Grade ≥3: 2 (2) no. (%)
  Patients with Hyperphosphatemia, Any grade: 76 (77) no. (%)
  Patients with Hyperphosphatemia, Grade 1: 53 (54) no. (%)
  Patients with Hyperphosphatemia, Grade 2: 21 (21) no. (%)
